Experiments:
HeLa cancer cells = experiment: Quantification of autophagy GFP-LC3 puncta in HeLa cells; format: cell-based, human; settings: 20 μM liensinine or 10 μM others, 4 hours, compared to DMSO control (FIG. 2a)
Procedure: GFP-LC3 puncta formation was quantified as previously described. In brief, GFP-LC3 transfected cells grown on coverslips in a 6-well plate were treated with or without 20 μM of […], 10 μM of isoliensinine, dauricine, cepharanthine, hernandezine or thalidezine for 4 hours, the cells were then fixed in 4% paraformaldehyde for 20 minutes at room temperature and then rinsed with PBS. Slides were mounted with FluorSaveTM mounting media (Calbiochem, San Diego, Calif.) and examined by fluorescence microscopy. The number of GFP-positive cells with GFP-LC3 puncta formation was examined under the Nikon ECLIPSE 80i microscope. Representative images were captured with CCD digital camera Spot RT3TM (Diagnostic Instruments, Inc., Melville, N.Y.). To quantify for autophagy, the percentage of cells with punctate GFP-LC3 fluorescence was calculated by counting the number of the cells with punctate GFP-LC3 fluorescence in GFP-positive cells. A minimum of 150 cells from 3 randomly selected fields was scored.

LC3-II = experiment: Detection of autophagic marker protein LC3 conversion (Western blot); format: cell-based, human; settings: HeLa cells, Western blot (FIG. 2b)
Procedure: After treatments with […], isoliensinine, dauricine, cepharanthine, hernandezine and thalidezine, cells were harvested and lysed in RIPA buffer (Cell Signaling Technologies Inc., Beverly, Mass.). The cell lysates were then resolved by SDS-PAGE. After electrophoresis, the proteins from SDS-PAGE were transferred to nitrocellulose membrane which was then blocked with 5% non-fat dried milk for 60 minutes. The membrane was then incubated with LC3 primary antibodies (1:1000) in TBST overnight at 4° C. After that, the membrane was further incubated with HRP-conjugated secondary antibodies for 60 minutes. Finally, protein bands were visualized by using the ECL Western Blotting Detection Reagents (Invitrogen, Paisley, Scotland, UK).

[1] = tested on: HeLa cells expressing GFP-LC3; experiment: GFP-LC3 puncta quantification in the presence of autophagic inhibitor 3-MA; format: cell-based, human; settings: 20 μM liensinine or 10 μM others, 3-MA 5 mM, 4 hours (FIG. 3)
Procedure: GFP-LC3 puncta formation was quantified as previously described. In brief, HeLa cells expressing GFP-LC3 were treated with 20 μM of […], or 10 μM of isoliensinine, dauricine, cepharanthine, hernandezine or thalidezine in the presence of autophagic inhibitor, 3-methyl adenine (3-MA, 5 mM), for 4 hours. The cells were then fixed in 4% paraformaldehyde for 20 minutes at room temperature and then rinsed with PBS. Slides were mounted with FluorSaveTM mounting media (Calbiochem) and examined by fluorescence microscopy. To quantify for autophagy, the percentage of cells with punctate GFP-LC3 fluorescence was calculated by counting the number of the cells with punctate GFP-LC3 fluorescence in GFP-positive cells. A minimum of 150 cells from 3 randomly selected fields were scored.

[2] = tested on: Atg7 wild-type mouse embryonic fibroblasts; experiment: GFP-LC3 puncta in Atg7 wild-type MEFs; format: cell-based; settings: 20 μM liensinine or 10 μM others, 24 h (FIGS. 4a to 4c)
Procedure: GFP-LC3 puncta formation was quantified as previously described. In brief, both Atg7 wild-type (Atg7-wt or Atg7+/+) and deficient (Atg7-/-) mouse embryonic fibroblasts (MEFs) were transfected with GFP-LC3 plasmid and then grown on coverslips in a 6-well plate. The cells were then treated with 20 μM of […], 10 μM of isoliensinine, 10 μM of dauricine, 10 μM of cepharanthine, hernandezine or 10 μM of thalidezine. for 24 h. The cells were then fixed in 4% paraformaldehyde for 20 minutes at room temperature and then rinsed with PBS. Slides were mounted with FluorSaveTM mounting media (Calbiochem, San Diego, Calif.) and examined by fluorescence microscopy. The number of GFP-positive cells with GFP-LC3 puncta formation was examined under the Nikon ECLIPSE 80i microscope. Representative images were captured with CCD digital camera Spot RT3TM (Diagnostic Instruments, Inc., Melville, N.Y.). To quantify for autophagy, the percentage of cells with punctate GFP-LC3 fluorescence was calculated by counting the number of the cells with punctate GFP-LC3 fluorescence in GFP-positive cells. A minimum of 150 cells from 3 randomly selected fields were scored.

AMPK = experiment: Detection of mTOR signaling marker proteins: AMPK phosphorylation (Western blot); format: cell-based, human; settings: HeLa cells, 20 μM liensinine or 10 μM others, compared to DMSO control (FIG. 5a)
Procedure: (§1) HeLa cells treated with 20 μM of […], 10 μM of isoliensinine, 10 μM of dauricine, 10 μM of cepharanthine, 10 μM of hernandezine and 10 μM of thalidezine were harvested and lysed in RIPA buffer (Cell Signaling). The cell lysates were then resolved by SDS-PAGE. After electrophoresis, the proteins from SDS-PAGE were transferred to nitrocellulose membrane which was then blocked with 5% non-fat dried milk for 60 minutes. The membrane was then incubated with P-p70S6K, p70S6K, P-AMPK, AMPK and actin primary antibodies (1:1000) in TBST overnight at 4° C. respectively. After that, the membrane was further incubated with HRP-conjugated secondary antibodies for 60 minutes. Finally, protein bands were visualized by using the ECL Western Blotting Detection Reagents (Invitrogen).

p70S6K = experiment: Detection of mTOR signaling marker proteins: p70S6K phosphorylation (Western blot); format: cell-based, human; settings: HeLa cells, 20 μM liensinine or 10 μM others (FIG. 5a)
Procedure: as §1

[3] = tested on: HeLa cells expressing GFP-LC3; experiment: GFP-LC3 puncta quantification in the presence of AMPK inhibitor compound C; format: cell-based, human; settings: compound C 5 μM, 24 hours (FIG. 5b)
Procedure: GFP-LC3 puncta formation was quantified as previously described. In brief, HeLa cells expressing GFP-LC3 were treated with indicated concentrations of […], isoliensinine, dauricine, cepharanthine, hernandezine and thalidezine in the presence of AMPK inhibitor, compound C (CC, 5 μM), for 24 hours. The cells were then fixed in 4% paraformaldehyde for 20 minutes at room temperature and then rinsed with PBS. Slides were mounted with FluorSaveTM mounting media (Calbiochem) and examined by fluorescence microscopy. To quantify for autophagy, the percentage of cells with punctate GFP-LC3 fluorescence was calculated by counting the number of the cells with punctate GFP-LC3 fluorescence in GFP-positive cells. A minimum of 150 cells from 3 randomly selected fields were scored.

[4] = tested on: EGFP-tagged mutant huntingtin (HDQ55, HDQ74); experiment: Removal of mutant huntingtin by immunoblotting against EGFP; format: cell-based; settings: PC 12 cells, 5-10 μM, 24 h, immunoblotting against EGFP antibody (FIG. 8b)
Procedure: (§2) PC 12 cells were transfected transiently with EGFP-HDQ55/74 plasmids for 24 h using Lipofectamine Plus LTX reagent (Invitrogen) according to the manufacturer's protocol. The transfected cells were then treated with […], isoliensinine, dauricine, cepharanthine, hernandezine and thalidezine for 24 h. The removal of mutant huntingtin, ([…]74) was then quantitated by immunoblotting with antibody against EGFP or by immunocytochemistry under fluorescence microscopy.

[5] = tested on: mutant huntingtin aggregate (HDQ55); experiment: Mutant huntingtin aggregate by fluorescence imaging; format: cell-based; settings: PC 12 cells, fluorescence imaging (FIG. 8c)
Procedure: as §2

Compound	GFP-LC3 puncta formation (HeLa cancer cells)	conversion of the autophagic marker LC3-II (LC3-II)	compound-induced GFP-LC3 puncta formation in the presence of autophagic inhibitor (3-MA) [1]	GFP-LC3 puncta formation in wild type Atg7 cells [2]	phosphorylation of AMPK (AMPK)	downstream p70S6K phosphorylation (p70S6K)	compound-induced GFP-LC3 puncta formation in the presence of AMPK inhibitor (Compound C) [3]	clearance of overexpressed EGFP-tagged mutant huntingtin (HDQ55, HDQ74) [4]	formed mutant huntingtin aggregate (HDQ55) [5]
COc1cc2c(cc1OC)[C@@H](Cc1ccc(Oc3cc(C[C@@H]4c5cc(OC)c(OC)cc5CCN4C)ccc3O)cc1)N(C)CC2 [dauricine]	significantly induced	induced	significant reduction	induce	activate	concomitant reduction	significant reduction	enhanced	significantly reduced
COc1ccc2cc1Oc1ccc(cc1)C[C@H]1c3cc(c(OC)cc3CCN1C)Oc1c(OC)c(OC)c(OC)c3c1[C@H](C2)N(C)CC3 [hernandezine]	significantly induced	induced	significant reduction	induce	activate	concomitant reduction	significant reduction	enhanced	significantly reduced
COc1ccc(C[C@@H]2c3cc(Oc4cc(C[C@@H]5c6cc(O)c(OC)cc6CCN5C)ccc4O)c(OC)cc3CCN2C)cc1 [isoliensinine]	significantly induced	induced	significant reduction	induce	activate	concomitant reduction	significant reduction	enhanced	significantly reduced
COc1cc2c(cc1OC)[C@@H](Cc1ccc(O)c(Oc3cc4c(cc3OC)CCN(C)[C@@H]4Cc3ccc(O)cc3)c1)N(C)CC2 [liensinine]	significantly induced	induced	significant reduction	induce	activate	concomitant reduction	significant reduction	enhanced	significantly reduced
thalidezine	significantly induced	induced	significant reduction	induce	activate	concomitant reduction	significant reduction	enhanced	significantly reduced
